Test results published in the supplement of paper PMC11061612.

Key:
Experiment in all cases: Bliss excess, mean over the matrix (fraction); higher = more synergy
GI-1 (Glioblastoma) = test system: GI-1 (Glioblastoma)
In short: (§1)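 Bliss excess equals the observed combination effect minus the expected value EA + EB − EA·EB, where EA and EB are the effects of each agent alone. Combination Emax is the second-highest inhibition within the matrix. Inhibition was scaled from CellTiter-Glo 2.0 luminescence, with 0 set by vehicle wells and 1 by blank wells, after 72 hours of two-drug dosing of cells plated in 1536-well plates.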

[1] = test system: KP-2 (Pancreatic Carcinoma)
In short: as §1

[2] = test system: PF-382 (T-Lymphoblastic Leukemia)
In short: as §1

BT-20 (Breast Carcinoma) = test system: BT-20 (Breast Carcinoma)
In short: as §1

[3] = test system: HC-1 (Other Blood Carcinomas)
In short: as §1

IMR-5 (Neuroblastoma) = test system: IMR-5 (Neuroblastoma)
In short: as §1

[4] = test system: NCI-H513 (Other Solid Carcinomas)
In short: as §1

A704 (Kidney Carcinoma) = test system: A704 (Kidney Carcinoma)
In short: as §1

[5] = test system: NCI-H1573 (Lung Adenocarcinoma)
In short: as §1

[6] = test system: DG-75 (Burkitt's Lymphoma)
In short: as §1

[7] = test system: LOU-NH91 (Squamous Cell Lung Carcinoma)
In short: as §1

[8] = test system: HSC-2 (Oral Cavity Carcinoma)
In short: as §1

[9] = test system: NCI-N87 (Gastric Carcinoma)
In short: as §1

RPMI-7951 (Melanoma) = test system: RPMI-7951 (Melanoma)
In short: as §1

[10] = test system: SNU-C1 (Colorectal Carcinoma)
In short: as §1

U-87-MG (Glioblastoma) = test system: U-87-MG (Glioblastoma)
In short: as §1

EW-3 (Ewing's Sarcoma) = test system: EW-3 (Ewing's Sarcoma)
In short: as §1

[11] = test system: NCI-H2405 (Lung Adenocarcinoma)
In short: as §1

[12] = test system: OCUM-1 (Gastric Carcinoma)
In short: as §1

[13] = test system: LC4-1 (B-Lymphoblastic Leukemia)
In short: as §1

| SMILES | Bliss excess (GI-1 (Glioblastoma)) | Bliss excess [1] | Bliss excess [2] | Bliss excess (BT-20 (Breast Carcinoma)) | Bliss excess [3] | Bliss excess (IMR-5 (Neuroblastoma)) | Bliss excess [4] | Bliss excess (A704 (Kidney Carcinoma)) | Bliss excess [5] | Bliss excess [6] | Bliss excess [7] | Bliss excess [8] | Bliss excess [9] | Bliss excess (RPMI-7951 (Melanoma)) | Bliss excess [10] | Bliss excess (U-87-MG (Glioblastoma)) | Bliss excess (EW-3 (Ewing's Sarcoma)) | Bliss excess [11] | Bliss excess [12] | Bliss excess [13] |
| --- | --- | --- | --- | --- | --- | --- | --- | --- | --- | --- | --- | --- | --- | --- | --- | --- | --- | --- | --- | --- |
| COc1cc2ncnc(Nc3ccc(F)c(Cl)c3)c2cc1OCCCN1CCOCC1 [Gefitinib] + CC(C)n1c(=O)n(C)c2cnc3cc(F)c(-c4ccc(OCCCN5CCCCC5)nc4)cc3c21 [AZD1390] (first compound max 10 µM, 7x7, partner max 0.3 µM) | -0.013 | -0.0438 | -0.0668 | -0.047 | -0.127 | -0.0516 | -0.0828 | -0.0325 | -0.104 | -0.0333 | -0.0195 | -0.0442 | -0.064 | -0.0498 | -0.0507 | -0.0771 | -0.0347 | -0.0597 | -0.101 | -0.0408 |
| COc1cccc(OCCCN)c1-c1cc(Nc2cnc(C#N)cn2)n[nH]1 [Prexasertib] + CCc1c2c(nc3ccc(O)cc13)-c1cc3c(c(=O)n1C2)COC(=O)[C@]3(O)CC [SN-38] (first compound max 1 µM, 7x7, partner max 0.3 µM) | 0.0188 | 0.0983 | -0.0583 | 0.0673 | -0.0005 | -0.011 | -0.0068 | -0.0496 | 0.0357 | 0.0019 | -0.0648 | -0.0507 | -0.0787 | -0.0265 | -0.0179 | -0.092 | -0.0732 | -0.058 | -0.101 | -0.0868 |
| CN(CCO)CC[C@H](CSc1ccccc1)Nc1ccc(S(=O)(=O)NC(=O)c2ccc(N3CCC([C@@H](O)c4ccccc4-c4ccc(Cl)cc4)CC3)cc2)cc1S(=O)(=O)C(F)(F)F [AZD4320] + C[C@@H]1COCCN1C2=NC(=NC(=C2)C3(CC3)[S@](=N)(=O)C)C4=C5C=CNC5=NC=C4 [AZD6738] (first compound max 1 µM, 7x7, partner max 10 µM) | -0.0203 | -0.104 | -0.0126 | 0.0778 | 0.0127 | 0.102 | -0.0586 | -0.0084 | -0.0524 | -0.0217 | 0.0126 | 0.0594 | -0.0456 | -0.0137 | -0.115 | -0.0248 | -0.0236 | -0.0448 | -0.0134 | 0.0481 |
| NC1(C(=O)N[C@@H](CCO)c2ccc(Cl)cc2)CCN(c2ncnc3[nH]ccc23)CC1 [Capivasertib] + CCN(CCO)CCCOc1ccc2c(Nc3cc(CC(=O)Nc4cccc(F)c4)[nH]n3)ncnc2c1 [AZD2811] (first compound max 10 µM, 7x7, partner max 1 µM) | 0.022 | -0.0433 | -0.0497 | -0.0003 | -0.0564 | -0.0144 | -0.0479 | -0.0375 | -0.0074 | 0.04 | -0.0075 | 0.0572 | -0.0529 | -0.0886 | -0.0407 | 0.0175 | 0.0117 | -0.0535 | 0.0378 | -0.0221 |
| Cc1nc(Nc2ncc(C(=O)Nc3c(C)cccc3Cl)s2)cc(N2CCN(CCO)CC2)n1 [Dasatinib] + CC(=O)Nc1cccc(-n2c(=O)n(C3CC3)c(=O)c3c(Nc4ccc(I)cc4F)n(C)c(=O)c(C)c32)c1 [Trametinib] (first compound max 2 µM, 7x7, partner max 1 µM) | 0.0396 | 0.136 | 0.198 | -0.0878 | -0.0813 | -0.0059 | 0.0273 | 0.0541 | 0.0311 | 0.0387 | -0.0403 | -0.0238 | -0.0339 | -0.0745 | -0.0616 | -0.0575 | -0.0576 | 0.0721 | 0.0155 | -0.0543 |
| NC1(C(=O)N[C@@H](CCO)c2ccc(Cl)cc2)CCN(c2ncnc3[nH]ccc23)CC1 [Capivasertib] + C[C@@H]1COCCN1C2=NC(=NC(=C2)C3(CC3)[S@](=N)(=O)C)C4=C5C=CNC5=NC=C4 [AZD6738] (first compound max 10 µM, 7x7, partner max 10 µM) | -0.0606 | -0.0279 | -0.0059 | -0.0442 | -0.0166 | 0.019 | -0.0601 | -0.0571 | -0.0522 | -0.0138 | -0.0192 | -0.0096 | -0.0567 | -0.0632 | -0.0534 | 0.0169 | -0.0457 | -0.0513 | -0.0088 | 0.0099 |
| CC1(C)CCC(CN2CCN(c3ccc(C(=O)NS(=O)(=O)c4ccc(NCC5CCOCC5)c([N+](=O)[O-])c4)c(Oc4cnc5[nH]ccc5c4)c3)CC2)=C(c2ccc(Cl)cc2)C1 [Venetoclax] + CCN(CCO)CCCOc1ccc2c(Nc3cc(CC(=O)Nc4cccc(F)c4)[nH]n3)ncnc2c1 [AZD2811] (first compound max 1 µM, 7x7, partner max 1 µM) | 0.0405 | -0.0247 | 0.0279 | -0.0005 | 0.177 | -0.0014 | -0.04 | -0.0365 | -0.0246 | -0.0104 | -0.0477 | -0.0264 | -0.004 | 0.0107 | -0.0321 | -0.0009 | 0.0634 | -0.0345 | 0.0236 | 0.0039 |
| CN(CCO)CC[C@H](CSc1ccccc1)Nc1ccc(S(=O)(=O)NC(=O)c2ccc(N3CCC([C@@H](O)c4ccccc4-c4ccc(Cl)cc4)CC3)cc2)cc1S(=O)(=O)C(F)(F)F [AZD4320] + CN(C)CCCOc1ccc(-c2ccc3ncc4c(c3c2)n(C2CCOCC2)c(=O)n4C)cn1 [AZD0156] (first compound max 1 µM, 7x7, partner max 1 µM) | 0.0066 | -0.0444 | -0.002 | 0.0323 | -0.0813 | 0.0284 | -0.0484 | -0.0411 | -0.0255 | -0.0183 | 0.0054 | -0.0242 | -0.0474 | 0.0046 | -0.0283 | -0.0331 | 0.0012 | -0.0378 | -0.055 | 0.0937 |
| CC1(C)CCC(CN2CCN(c3ccc(C(=O)NS(=O)(=O)c4ccc(NCC5CCOCC5)c([N+](=O)[O-])c4)c(Oc4cnc5[nH]ccc5c4)c3)CC2)=C(c2ccc(Cl)cc2)C1 [Venetoclax] + C[C@@H](Nc1cc(F)cc(F)c1)c1cc(C(=O)N(C)C)cc2c(=O)cc(N3CCOCC3)oc12 [AZD8186] (first compound max 1 µM, 7x7, partner max 3 µM) | -0.0091 | -0.0312 | 0.0111 | -0.0229 | 0.0693 | 0.0793 | -0.0586 | -0.0162 | -0.0247 | 0.0255 | -0.0647 | -0.0482 | -0.111 | -0.0344 | -0.0749 | -0.117 | 0.0336 | -0.0396 | -0.0263 | 0.0967 |
| NC1(C(=O)N[C@@H](CCO)c2ccc(Cl)cc2)CCN(c2ncnc3[nH]ccc23)CC1 [Capivasertib] + COc1nnc2ccc(N3CCC(c4ccc(OCCN5CCN(C)C(=O)[C@H]5C)cc4)CC3)nn12 [AZD5153] (first compound max 10 µM, 7x7, partner max 1 µM) | 0.0578 | 0.0358 | 0.0451 | 0.0023 | 0.0365 | 0.0285 | -0.0222 | 0.0204 | -0.0011 | -0.0133 | -0.025 | 0.0456 | -0.0314 | 0.0498 | -0.0147 | 0.0526 | 0.0429 | 0.0138 | 0.0318 | 0.002 |
| COc1nnc2ccc(N3CCC(c4ccc(OCCN5CCN(C)C(=O)[C@H]5C)cc4)CC3)nn12 [AZD5153] + CC1(C)CCC(CN2CCN(c3ccc(C(=O)NS(=O)(=O)c4ccc(NCC5CCOCC5)c([N+](=O)[O-])c4)c(Oc4cnc5[nH]ccc5c4)c3)CC2)=C(c2ccc(Cl)cc2)C1 [Venetoclax] (first compound max 1 µM, 7x7, partner max 1 µM) | 0.0247 | -0.0381 | -0.0551 | -0.071 | 0.0089 | -0.0119 | -0.086 | -0.0016 | -0.0885 | -0.063 | -0.0758 | -0.0196 | -0.0978 | -0.0292 | -0.061 | -0.0343 | -0.0801 | -0.0484 | -0.0456 | -0.0482 |
| Cn1cnc2c(F)c(Nc3ccc(Br)cc3Cl)c(C(=O)NOCCO)cc21 [Selumetinib] + C[C@@H]1COCCN1C2=NC(=NC(=C2)C3(CC3)[S@](=N)(=O)C)C4=C5C=CNC5=NC=C4 [AZD6738] (first compound max 10 µM, 7x7, partner max 10 µM) | -0.0338 | 0.121 | -0.0047 | 0.0733 | -0.0743 | 0.0151 | 0.0555 | -0.039 | 0.0488 | -0.0328 | 0.0302 | -0.0553 | -0.0604 | 0.0239 | -0.0453 | 0.0075 | -0.0489 | 0.0971 | -0.0359 | -0.0168 |
| Cc1c2c(nn1C)CSCc1cc(n(C)n1)CSc1cc(c3ccccc3c1)OCCCc1c(C(=O)O)n(C)c3c-2c(Cl)ccc13 [AZD5991] + Cn1cnc2c(F)c(Nc3ccc(Br)cc3Cl)c(C(=O)NOCCO)cc21 [Selumetinib] (first compound max 1 µM, 7x7, partner max 3 µM) | -0.0491 | 0.137 | 0.0006 | 0.153 | 0.0827 | -0.0154 | -0.0255 | -0.106 | -0.0059 | -0.0023 | -0.025 | -0.0024 | 0.0633 | -0.0072 | 0.0034 | -0.0073 | -0.0435 | 0.0595 | -0.0034 | 0.0467 |
| CN(CCO)CC[C@H](CSc1ccccc1)Nc1ccc(S(=O)(=O)NC(=O)c2ccc(N3CCC([C@@H](O)c4ccccc4-c4ccc(Cl)cc4)CC3)cc2)cc1S(=O)(=O)C(F)(F)F [AZD4320] + C=CCn1c(=O)c2cnc(Nc3ccc(N4CCN(C)CC4)cc3)nc2n1-c1cccc(C(C)(C)O)n1 [AZD1775] (first compound max 1 µM, partner max 1 µM) | 0.0542 | 0.0889 | -0.0132 | 0.0557 | 0.206 | 0.118 | 0.0699 | 0.0138 | -0.0052 | -0.0232 | 0.105 | 0.058 | 0.0086 | -0.0023 | -0.0588 | -0.0637 | 0.11 | -0.0234 | 0.03 | 0.0369 |
